Patent US4650900A, “Aminoalkyl substituted urea derivatives and method of treatment” (H. Lundbeck A/S, priority 1985, dated 1987)

Key:
Format in all cases: in vivo
[1] = tested on: P 388 lymphocytic leukaemia; test: Antitumor test in mice, P 388 lymphocytic leukaemia model (ILS %)
Excerpt: (§1) The compound N-(4-dimethylamino-2,2-diphenyl-3-methyl-1-butyl)-urea, (in the following called Lu 9-110), has been tested in mice given several daily/weekly injections against the following experimental model tumors:
P 388 lymphocytic leukaemia

[2] = tested on: Ehrlich Ascites tumor (EAT); test: Antitumor test in mice, Ehrlich Ascites tumor (EAT) model (ILS %); conditions: i.p. suspension in methylcellulose, q 8 hrs × 6, 150 mg/kg
Excerpt: as §1
Ehrlich Ascites tumor (EAT)

[3] = tested on: L 1210 lymphoid leukaemia; test: Antitumor test in mice, L 1210 lymphoid leukaemia model (ILS %); conditions: L 1210, i.p. suspension in methylcellulose, q 8 hrs × 6, 150 mg/kg
Excerpt: as §1
L 1210 lymphoid leukaemia

[4] = Toxicity of Lu 9-110 (LD10, LD50); conditions: for LD50: mouse, in vivo, ip
[5] = Preliminary toxicity experiments over 1 and 4 weeks (myelosuppression); conditions: repeated administration, mice
[6] = i.p. solution, accumulated dose
[7] = i.p. suspension, accumulated dose (independent of schedule)

`CC(CN(C)C)C(CNC(N)=O)(c1ccccc1)c1ccccc1` (stereo not shown) [Lu 9-110, N-(4-Dimethylamino-2,2-diphenyl-3-methyl-1-butyl)-urea] showed an ILS % ([1]; P 388, aqueous solution, q 3 hrs × 8, 50 mg/kg) of 67%, an ILS % ([1]; P 388, aqueous solution, q 8 hrs × 3, 100 mg/kg) of 33% and an ILS % ([1]; P 388, aqueous solution, ×1, 100 mg/kg) of 9%. For the same compound, the ILS % ([1]; P 388, i.p. suspension in methylcellulose, q 8 hrs × 6, 150 mg/kg) was 92%, the ILS % [2] was 120% and the ILS % [3] was 33%. The LD10 [4, 6] was 300 to 500 mg/kg, the LD10 ([4]; i.p. solution, single dose) was ~ 100 mg/kg and the LD10 [4, 7] was ~ 1100 mg/kg. For the same compound, the LD50 [4, 6] was 400 to 600 mg/kg, the LD50 ([4]; i.p. solution, single dose) was about 150 mg/kg and the LD50 [4, 7] was about 1400 mg/kg. For the same compound, the myelosuppression [5] was “only very slight myelosuppression”.
